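Compound exposure: 48 hours, 5 concentrations, 96-well plates. GI50 is the concentration that inhibits growth by half.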 Active and inactive are the calls of the source. Cut-off read from the data, not from the text of the source: active = GI50 up to about 1.1 µM and inactive = higher.
Experiments:
Test in all cases: NCI tumour cell line growth inhibition, 48 h
DLD-1 = system: DLD-1
DMS-273 = system: DMS-273
HOP-18 = system: HOP-18
KM-20L2 = system: KM-20L2
M19-MEL = system: M19-MEL
SNB-78 = system: SNB-78
BT-549 = system: BT-549
XF498 = system: XF498
RXF 631 = system: RXF 631

## CC1(C)OC2OC(/C=C/[N+](=O)[O-])C3OC(C)(C)OC3C2O1 (configuration not stated)
DLD-1
  GI50: 1.61 µM (inactive)
DMS-273
  GI50: 17.3 µM (inactive)
HOP-18
  GI50: 23.1 µM (inactive)
KM-20L2
  GI50: 19.5 µM (inactive)
M19-MEL
  GI50: 14.2 µM (inactive)
SNB-78
  GI50: 14.2 µM (inactive)

## Nn1c(S)nnc1CCCCCCCCc1nnc(S)n1N
BT-549
  GI50: > 100 µM (inactive)

## Cc1cccc(NC(=O)c2cccc([N+](=O)[O-])c2O)c1C
BT-549
  GI50: 30.2 µM (inactive)
DLD-1
  GI50: 27.3 µM (inactive)
DMS-273
  GI50: 22.2 µM (inactive)
HOP-18
  GI50: 4.74 µM (inactive)
KM-20L2
  GI50: 21.8 µM (inactive)
M19-MEL
  GI50: 21.9 µM (inactive)
SNB-78
  GI50: 85.5 µM (inactive)
XF498
  GI50: 20.3 µM (inactive)

## CC(=O)O[C@H]1C(=O)[C@@]2(C)[C@H]([C@H](OC(=O)C3CCCCC3)[C@]3(O)C[C@H](OC(=O)[C@H](O)[C@@H](NC(=O)C4CCCCC4)C4CCCCC4)C(C)=C1C3(C)C)[C@]1(OC(C)=O)CO[C@@H]1C[C@@H]2O
BT-549
  GI50: 0.0556 µM (active)

## COc1ccc(C(=O)O)c(Cc2ccc3ccccc3c2)c1
DLD-1
  GI50: > 100 µM (inactive)
DMS-273
  GI50: > 100 µM (inactive)
HOP-18
  GI50: > 100 µM (inactive)
KM-20L2
  GI50: > 100 µM (inactive)
M19-MEL
  GI50: > 100 µM (inactive)
SNB-78
  GI50: > 100 µM (inactive)
XF498
  GI50: > 100 µM (inactive)

## Nc1ncnc2c1ncn2C1OC(CO)C(O)C1NS(=O)(=O)c1ccccc1 (configuration not stated)
BT-549
  GI50: > 100 µM (inactive)

## O=C(Nc1ccc(Cl)cc1)Oc1ccc(C(=S)Nc2ccc(Br)cc2)cc1
BT-549
  GI50: 17.9 µM (inactive)

## O=C1C(Br)=CC2(C=C1Br)CCNC1=C2C(=O)c2ncccc2C1=O
BT-549
  GI50: 1.42 µM (inactive)

## CCOC(=O)C1=C(C)NC(=O)NC1c1coc2cc(C)cc(C)c2c1=O (configuration not stated)
BT-549
  GI50: 99.3 µM (inactive)

## COc1ccc(/C(=C\c2cc(OC)c(OC)c(OC)c2)C(=O)O)cc1
DLD-1
  GI50: 40.1 µM (inactive)
DMS-273
  GI50: 23.3 µM (inactive)
HOP-18
  GI50: > 100 µM (inactive)
KM-20L2
  GI50: 21 µM (inactive)
M19-MEL
  GI50: 52 µM (inactive)
SNB-78
  GI50: 39 µM (inactive)
XF498
  GI50: 11.1 µM (inactive)

## O=C1OC(OC/C(Br)=C(\Br)COC2OC(=O)C(Cl)=C2Cl)C(Cl)=C1Cl (configuration not stated)
BT-549
  GI50: 2.67 µM (inactive)

## COc1ccc(Nc2nc3c(N)cc(C(F)(F)F)cc3nc2-c2ccccc2)cc1OC
DLD-1
  GI50: 22.7 µM (inactive)
DMS-273
  GI50: 33.5 µM (inactive)
HOP-18
  GI50: 13.7 µM (inactive)
KM-20L2
  GI50: 36.9 µM (inactive)
M19-MEL
  GI50: 22.5 µM (inactive)
SNB-78
  GI50: 28.3 µM (inactive)
XF498
  GI50: 14.8 µM (inactive)

## CC(C)CCC1(CCN)C(=O)NC(=O)NC1=O
BT-549
  GI50: > 100 µM (inactive)

## O=c1[nH]nc(-c2cccc(Br)c2)[nH]1
BT-549
  GI50: 4.74 µM (inactive)

## O=c1c2cc(Br)ccc2nc(-c2ccccc2)n1NCC1(O)OCC(O)C(O)C1O (configuration not stated)
DMS-273
  GI50: > 100 µM (inactive)
KM-20L2
  GI50: > 100 µM (inactive)
M19-MEL
  GI50: > 100 µM (inactive)
SNB-78
  GI50: > 100 µM (inactive)

## Cc1cc(C)c(S(=O)(=O)N2CCCN(S(=O)(=O)c3c(C)cc(C)cc3C)OCCCO2)c(C)c1
BT-549
  GI50: > 100 µM (inactive)

## COc1c(C)c2c(c3c1c(=O)c1ccccc1n3C)C=CC(C)(C)O2
DLD-1
  GI50: 34.5 µM (inactive)
DMS-273
  GI50: 14.8 µM (inactive)
HOP-18
  GI50: 38.1 µM (inactive)
KM-20L2
  GI50: 16.4 µM (inactive)
M19-MEL
  GI50: 31.7 µM (inactive)
SNB-78
  GI50: 31.7 µM (inactive)
XF498
  GI50: 24.9 µM (inactive)

## O=C(O)c1ccccc1Sc1ccccc1[N+](=O)[O-]
BT-549
  GI50: > 100 µM (inactive)

## CC1(c2cccc3c2C2(O)C=CC4(CCC32)OCCO4)OCCO1 (configuration not stated)
DLD-1
  GI50: > 100 µM (inactive)
DMS-273
  GI50: > 100 µM (inactive)
HOP-18
  GI50: > 100 µM (inactive)
KM-20L2
  GI50: > 100 µM (inactive)
M19-MEL
  GI50: > 100 µM (inactive)
SNB-78
  GI50: > 100 µM (inactive)

## CC(C)CCC[C@@H](C)C1CCC2[C@@H]3CCC4CC(CCC=C(c5cc(Cl)c(OC(=O)c6ccccc6)c(C(=O)O)c5)c5cc(Cl)c(OC(=O)c6ccccc6)c(C(=O)O)c5)CC[C@]4(C)C3CC[C@@]21C (some centres not stated)
BT-549
  GI50: > 100 µM (inactive)

## CC1=N/C(=C\c2ccc(/C=C3/N=C(C)OC3=O)cc2)C(=O)O1
DLD-1
  GI50: > 100 µM (inactive)
DMS-273
  GI50: > 100 µM (inactive)
HOP-18
  GI50: > 100 µM (inactive)
KM-20L2
  GI50: > 100 µM (inactive)
M19-MEL
  GI50: > 100 µM (inactive)
SNB-78
  GI50: > 100 µM (inactive)
XF498
  GI50: > 100 µM (inactive)

## Cn1cc(NC(=O)Nc2cc(C(=O)Nc3cc(C(=O)Nc4cc(S(=O)(=O)O)c5cc(S(=O)(=O)O)cc(S(=O)(=O)O)c5c4)n(C)c3)n(C)c2)cc1C(=O)Nc1cc(C(=O)Nc2cc(S(=O)(=O)O)c3cc(S(=O)(=O)O)cc(S(=O)(=O)O)c3c2)n(C)c1
BT-549
  GI50: > 100 µM (inactive)

## Cc1ccc2c(c1)nc1n2C(N)=Nc2ccccc2S1
BT-549
  GI50: > 100 µM (inactive)

## CCC1=NC(N/N=C/c2ccccc2O)=N/C1=C\c1ccccc1O
BT-549
  GI50: 12.1 µM (inactive)

## NNC(=S)N/N=C/C(=C/Nc1ccccc1)[N+](=O)[O-]
DLD-1
  GI50: > 100 µM (inactive)
KM-20L2
  GI50: > 100 µM (inactive)
M19-MEL
  GI50: > 100 µM (inactive)
RXF 631
  GI50: > 100 µM (inactive)
XF498
  GI50: > 100 µM (inactive)

## COC(=O)c1ccccc1CC1Cc2ccc3c(c2C1=O)CCCC3 (configuration not stated)
BT-549
  GI50: 49.1 µM (inactive)

## O=C(O)CCC(=O)OCN1C(=O)C2C3C=CC(C2C1=O)C1C2C(=O)N(COC(=O)CCC(=O)O)C(=O)C2C31 (configuration not stated)
DLD-1
  GI50: > 57.7 µM (inactive)
DMS-273
  GI50: > 43.2 µM (inactive)
HOP-18
  GI50: 76.9 µM (inactive)
KM-20L2
  GI50: > 100 µM (inactive)
M19-MEL
  GI50: > 61.1 µM (inactive)
SNB-78
  GI50: > 100 µM (inactive)
XF498
  GI50: > 100 µM (inactive)

Reference: ChEMBL document CHEMBL1201862, “PubChem BioAssay data set” (2004)
